Measurements taken from patent US10640507B2, “PBD antibacterial agents” (KING'S COLLEGE LONDON, priority 2015, dated 2020).
≈ marks a conversion by molar mass, not a printed value. Read-outs that look alike come from different tables or passages of the source.

Assays:
Format in all cases: cell-based
EMRSA-16 = experiment: General MIC protocol, Gram positive panel
Procedure: (§1) General Minimum Inhibitory Concentration (MIC) Protocol
(§2) 1. Grow up cultures of bacterial strains to be tested overnight.
(§3) 2. Dilute down overnight cultures to concentration of 1×10^6 bacteria/ml (OD0.01) in Tryptic soy broth (TSB).
(§4) 3. Add 100 μl of TSB media to column 2-column 12 in 96 well plate (keeping column 1 clear).
(§5) 4. Make up compound to a concentration of 64 μg/ml in water (or alternatively to twice the chosen maximum concentration to be tested).
(§6) 5. Add 100 μl of antibiotic solution to the 1st and 2nd columns.
(§7) 6. Using a multichannel pipette take 100 μl from the 2nd column wells and pipette into 3rd column wells and repeat down the 96 well plate (remembering to include controls i.e. uninfected media and media with no antibiotic).
(§8) 7. To each well (except uninfected control row H) add 100 μl of bacterially infected media at a concentration of 1×10^6/ml.
(§9) 8. This dilutes down the concentration of the antibiotic by half (top dose is therefore 32 μg/ml in column 1) and also gives you a starting bacterial concentration of 5×10^5/ml.
(§10) 9. Wrap plate with parafilm to prevent evaporation.
(§11) 10. Leave at desired temperature (37° C. unless specified elsewhere) for 20 hours.
(§12) 11. Next day check plates for growth and measure optical density (i.e. absorbance) at a wavelength of 600 nm (OD600).
(§13) An example of such a plate is shown in FIG. 1 where column A represents wells that receive the top dose 100 μl; column B represents wells that receive the top dose 100 μl+100 μl TSB; and column C represents wells that receive 100 μl TSB. Row H which is marked by a box labelled D represents a blank where the cells receive no bacteria.

E. faecalis VSE NCTC 775 = experiment: General MIC protocol, Gram positive panel; conditions: Enterococcus faecalis, NCTC775; VSE 775
Procedure: as §1, §2, §3, §4, §5, §6, §7, §8, §9, §10, §11, §12, §13

[1] = test system: methicillin sensitive S. aureus ATTC 9144 (NCTC 6571); experiment: General MIC protocol, Gram positive panel; conditions: Staphylococcus aureus, MSSA / NCTC 6571; MSSA 9144
Procedure: as §1, §2, §3, §4, §5, §6, §7, §8, §9, §10, §11, §12, §13

[2] = test system: E. faecalis VRE NCTC 12201; experiment: General MIC protocol, Gram positive panel
Procedure: as §1, §2, §3, §4, §5, §6, §7, §8, §9, §10, §11, §12, §13

EMRSA-15 = experiment: General MIC protocol, Gram positive panel
Procedure: as §1, §2, §3, §4, §5, §6, §7, §8, §9, §10, §11, §12, §13

[3] = test system: E. faecium VRE NCTC 12204; experiment: General MIC protocol, Gram positive panel
Procedure: as §1, §2, §3, §4, §5, §6, §7, §8, §9, §10, §11, §12, §13

[4] = test system: K. pneumonia - NCTC 13368; conditions: drug at 4×MIC
Procedure: (§14) 1. Grow bacteria overnight.
(§15) 2. Subculture into an autoclaved conical flask containing 10 ml of TSB to an OD of 0.01 (˜1×10^7 Cfu/ml for KP-M6).
(§16) 4. Take aliquots (100 μl) at timepoints (0, 1, 2, 4, 6, 24 hours) and carry out a serial dilution in PBS (to remove drug and to dilute bacteria to countable numbers).
(§17) 5. Use the serial dilution to perform a Miles Misra—i.e. Add 3×10 μl spots of each dilution onto an agar plate. Incubate overnight and count colonies on spots in the morning.
(§18) 6. Control: Subculture bacteria alongside samples but with no antibiotic added. Take aliquots from this at every time point (0, 1, 2, 4, 6, 24 hours) and perform Miles Misra on these too (as detailed in points 4 and 5 above).
(§19) 7. After the first experiment, if the counts seen on Miles-Misra were zero, total viable counts were determined by spreading 200 μl in a streak down the centre of a TSB agar plate, waiting for the liquid to be absorbed and then spreading over the plate and checking for growth inhibition at the sight of the original streak.
(§20) 8. The compound is considered bactericidal if the inoculum was reduced >3 log10 CFU/ml and bacteriostatic if inoculum was reduced by 0-3 log10 CFU/ml.
(§21) Three measurements were taken for each compound at each time point. These measurements were averaged and the standard deviation was also calculated.

[5] = test system: K. pneumonia - NCTC 13438; conditions: drug at 4×MIC
Procedure: as §14, §15, §16, §17, §18, §19, §20, §21

A. baumannii - AYE = conditions: drug at 4×MIC
Procedure: as §14, §15, §16, §17, §18, §19, §20, §21

COc1cc2c(cc1OCCCC(=O)Nc1cc(C(=O)Nc3ccc4sc(C(=O)N(C)C)cc4c3)n(C)c1)N=C[C@@H]1CCCN1C2=O [KMR-14-33, (S)—N-(2-(dimethylcarbamoyl)benzo[b]thiophen-5-yl)-4-(4-((7-methoxy-5-oxo-2,3,5,11a-tetrahydro-1H-benzo[e]pyrrolo[1,2-a][1,4]-diazepin-8-yl)oxy)butanamido)-1-methyl-1H-pyrrole-2-carboxamide]
MIC (EMRSA-16): 0.06 µg/mL (≈ 0.0914 µM)
MIC (E. faecalis VSE NCTC 775): 0.03 µg/mL (≈ 0.0457 µM)
MIC [1]: 0.03 µg/mL (≈ 0.0457 µM)
MIC [2]: 0.03 µg/mL (≈ 0.0457 µM)
MIC (EMRSA-15): 0.03 µg/mL (≈ 0.0457 µM)
MIC [3]: 0.03 µg/mL (≈ 0.0457 µM)
Average (Log CFU/ml) ([4]; time-point 1 hours): 18850000 CFU/ml
n = 2 (Log CFU/ml) ([4]; time-point 1 hours): 36000000 CFU/ml
viable count ([4]; time-point 1 hours): 1.7e+06 CFU/mL
Average (CFU/ml) ([4]; time-point 2 hours): 505000 CFU/ml
n = 2 (Log CFU/ml) ([4]; time-point 2 hours): 900000 CFU/ml
viable count ([4]; time-point 2 hours): 110000 CFU/mL
Average (CFU/ml) ([4]; time-point 4 hours): 0 CFU/ml
n = 2 (CFU/ml) ([4]; time-point 4 hours): 0 CFU/ml
viable count ([4]; time-point 4 hours): 0 CFU/mL
Average (CFU/ml) ([4]; time-point 6 hours): 0 CFU/ml
n = 2 (CFU/ml) ([4]; time-point 6 hours): 0 CFU/ml
viable count ([4]; time-point 6 hours): 0 CFU/mL
Average (CFU/ml) ([4]; time-point 24 hours): 0 CFU/ml
n = 2 (CFU/ml) ([4]; time-point 24 hours): 0 CFU/ml
viable count ([4]; time-point 24 hours): 0 CFU/mL
Average (Log CFU/ml) ([5]; time-point 1 hours): 1000000 CFU/ml
n = 1 (Log CFU/ml) ([5]; time-point 1 hours): 1000000 CFU/ml
n = 2 (Log CFU/ml) ([5]; time-point 1 hours): 2000000 CFU/ml
n = 3 (Log CFU/ml) ([5]; time-point 1 hours): 1 CFU/ml
Average (Log CFU/ml) ([5]; time-point 2 hours): 34 CFU/ml
n = 1 (Log CFU/ml) ([5]; time-point 2 hours): 0 CFU/ml
n = 2 (Log CFU/ml) ([5]; time-point 2 hours): 100 CFU/ml
n = 3 (Log CFU/ml) ([5]; time-point 2 hours): 0 CFU/ml
Average (Log CFU/ml) ([5]; time-point 4 hours): 0 CFU/ml
n = 1 (Log CFU/ml) ([5]; time-point 4 hours): 0 CFU/ml
n = 2 (Log CFU/ml) ([5]; time-point 4 hours): 0 CFU/ml
n = 3 (Log CFU/ml) ([5]; time-point 4 hours): 0 CFU/ml
Average (Log CFU/ml) ([5]; time-point 6 hours): 0 CFU/ml
n = 1 (Log CFU/ml) ([5]; time-point 6 hours): 0 CFU/ml
n = 2 (Log CFU/ml) ([5]; time-point 6 hours): 0 CFU/ml
n = 3 (Log CFU/ml) ([5]; time-point 6 hours): 0 CFU/ml
Average (Log CFU/ml) ([5]; time-point 24 hours): 0 CFU/ml
n = 1 (Log CFU/ml) ([5]; time-point 24 hours): 0 CFU/ml
n = 2 (Log CFU/ml) ([5]; time-point 24 hours): 0 CFU/ml
n = 3 (Log CFU/ml) ([5]; time-point 24 hours): 0 CFU/ml
Average (Log CFU/ml) (A. baumannii - AYE; time-point 1 hours): 0 CFU/ml
n = 1 (Log CFU/ml) (A. baumannii - AYE; time-point 1 hours): 0 CFU/ml
n = 2 (Log CFU/ml) (A. baumannii - AYE; time-point 1 hours): 0 CFU/ml
n = 3 (Log CFU/ml) (A. baumannii - AYE; time-point 1 hours): 0 CFU/ml
Average (Log CFU/ml) (A. baumannii - AYE; time-point 2 hours): 0 CFU/ml
n = 1 (Log CFU/ml) (A. baumannii - AYE; time-point 2 hours): 0 CFU/ml
n = 2 (Log CFU/ml) (A. baumannii - AYE; time-point 2 hours): 0 CFU/ml
n = 3 (Log CFU/ml) (A. baumannii - AYE; time-point 2 hours): 0 CFU/ml
Average (Log CFU/ml) (A. baumannii - AYE; time-point 4 hours): 29 CFU/ml
n = 1 (Log CFU/ml) (A. baumannii - AYE; time-point 4 hours): 0 CFU/ml
n = 2 (Log CFU/ml) (A. baumannii - AYE; time-point 4 hours): 0 CFU/ml
n = 3 (Log CFU/ml) (A. baumannii - AYE; time-point 4 hours): 85 CFU/ml
Average (Log CFU/ml) (A. baumannii - AYE; time-point 6 hours): 1334 CFU/ml
n = 1 (Log CFU/ml) (A. baumannii - AYE; time-point 6 hours): 0 CFU/ml
n = 2 (Log CFU/ml) (A. baumannii - AYE; time-point 6 hours): 0 CFU/ml
n = 3 (Log CFU/ml) (A. baumannii - AYE; time-point 6 hours): 4000 CFU/ml
Average (Log CFU/ml) (A. baumannii - AYE; time-point 24 hours): 6667.333 CFU/ml
n = 1 (Log CFU/ml) (A. baumannii - AYE; time-point 24 hours): 0 CFU/ml
n = 2 (Log CFU/ml) (A. baumannii - AYE; time-point 24 hours): 20000 CFU/ml
n = 3 (Log CFU/ml) (A. baumannii - AYE; time-point 24 hours): 0 CFU/ml

COc1cc2c(cc1OCCCC(=O)Nc1cc(C(=O)Nc3ccc4oc(C(=O)N5CCSCC5)cc4c3)n(C)c1)N=C[C@@H]1CCCN1C2=O [PP-A148, (S)-4-(4-((7-methoxy-5-oxo-2,3,5,11a-tetrahydro-1H-benzo-[e]pyrrolo[1,2-a][1,4]diazepin-8-yl)oxy)butanamido)-1-methyl-N-(2-(thiomorpholine-4-carbonyl)benzofuran-5-yl)-1H-pyrrole-2-carboxamide]
MIC (EMRSA-16): 2 µg/mL (≈ 2.86 µM)
MIC (E. faecalis VSE NCTC 775): 1 µg/mL (≈ 1.43 µM)
MIC [1]: 0.5 µg/mL (≈ 0.716 µM)
MIC [2]: 0.25 to 0.5 µg/mL (≈ 0.358 to 0.716 µM)
MIC (EMRSA-15): 2 µg/mL (≈ 2.86 µM)
MIC [3]: 0.01 µg/mL (≈ 0.0143 µM)
